This note sets out measurements from patent US20260217671A1, “COMPOUND FOR PREVENTING AND/OR TREATING NEURODEGENERATIVE DISEASE” (TYK MEDICINES, INC., priority 2023, published 2026).

In data set [1] the test system is brain slices containing the hippocampus (CA3 stimulation, CA1 recording). The data set can be described thus: Electrophysiological LTP recording (fEPSP in hippocampal brain slices). Format: cell-based, C57BL/6J mice. The conditions noted are these: for activation effects on LTP (in words): same detection method as Table 5. The protocol:
Test Example 3 Electrophysiological LTP Recording
3.1 Preparation of Brain Slices:
C57BL/6J mice aged 6-8 weeks was taken and anesthetized, then quickly decapitated. The scalp was cut open, and removed the skull and dura mater. Quickly removed the whole brain and placed it in 0-4° C. artificial cerebrospinal fluid (ACSF) saturated with 95% O2 and 5% CO2 to cool it slightly. Resected the cerebellum and one-third of the forebrain, divided the brain into two halves along the midline, and dissected the hippocampus along the cortical margin from the medial side of the brain. The brain tissue containing the hippocampus was fixed on a slide dish with glue, and cut into 400-micron-thick brain slices in the coronal plane by a vibrating microtome. The brain slices were then placed in an incubation chamber on a nylon mesh submerged beneath the liquid surface, continuously supplied with a mixed gas, and incubated at 34° C. in a water bath for 0.5 h. The slices were then transferred to room temperature (26±1° C.) for further incubation until ready for use, with the experiment commencing 2-3 hours later.
3.2 In vitro brain slice potential recording:
Under direct visualization with a surgical microscope, a bipolar metal tungsten wire stimulation electrode with exposed tip was placed on the Schaffer collateral pathway of the CA3 region. The stimulation electrode was connected to the stimulator via an isolator, and the recording electrode was connected to a […] via a microelectrode amplifier, and then connected to data acquisition software.
3.3 Electrophysiological recording:
Before recording field excitatory postsynaptic potentials (fEPSPs), the brain slice was transferred to a recording chamber, and continuously perfused the cerebrospinal fluid in a water bath with a mixture of gases (95% 02, 5% CO2). The stimulation electrode was inserted into the CA3 region of the hippocampus, and the recording electrode was inserted into the CA1 region of the hippocampus. When approaching the target location, the insertion depth of the stimulation electrode and recording electrode was slowly and precisely adjusted. At the same time, a pulse with a width of 1 ms was applied every 10-20 s, and the stimulus intensity was adjusted until the optimal fEPSP was achieved. Then the electrode position was fixed, and a stimulus intensity achieving 30-40% of the maximum response elicited at the optimal fEPSP was set as a stimulus intensity to record a baseline of fEPSP. The recording was continued for 20-30 min to establish a stable baseline value. Subsequently, perfusion administration was performed (initial exploratory dose of 30 μM), with the administration duration ranging from 20-30 minutes (depending on the drug's efficacy). If the drug enhanced or reduced fEPSP, normal ACSF was used for elution for 40-60 minutes to observe whether the enhanced effect could be sustained over the long term: if there was no significant change in fEPSP, the experiment was terminated. […] Experimental data and images were processed using Clampfit software.
4. Data Statistics and Analysis:
All experimental data were expressed as mean±standard error (Mean f SEM). All statistical analyses were performed using one-way ANOVA. Significant differences were indicated as follows: *p≤0.05, **p≤0.01, ***p≤0.001. p>0.05 indicated no significant difference.

Data set [2] in a line: Pharmacokinetic experiment (gavage, plasma). It counts as in vivo. The conditions noted are these: rat, gavage (p.o.) 10 mg/kg; for AUC(0-t) / Cmax / Tmax: po. Here is the method: Test Example 1 Pharmacokinetic Experiment
Accurately weighed approximately 10 mg of the test sample, dissolved in DMSO to a total volume of 10%, then slowly added 0.5% MC solvent to a total volume of 90% while stirring, sonicated, vortexed, and obtained a solution of visually homogeneous formulation with a concentration of 1 mg/mL; freshly prepared before use.
Pipetted 0.2 mL of the sample into a 1.5 mL centrifuge tube and stored at −80° C. for use in the concentration analysis of the drug solution.
The animals were housed in rat cages and fasted for at least 10 hours prior to the experiment, but had access to water. On the day of the experiment, the animals were weighed and marked on the tail. Blank blood samples were collected prior to drug administration. Blood was collected from the tail vein.
• Route of administration: gavage (p.o.) • Dosage concentration: 1 mg/ml • Dosage: 10 mg/kg • Volume: 10 mL/kg • Procedure: Caught the rat with left hand wearing bite-resistant gloves, hold it upright, inserted the gavage needle into its mouth and throat, and injected the drug into its stomach after confirming that there was no obvious resistance.
Test animals were sampled at 0.5 h, 1 h, 2 h, 4 h, 6 h, 8 h, 12 h, and 24 h post-administration, collected 0.1-0.2 ml of whole blood into EDTA-Na2 anticoagulant tubes, inverted the tubes 3-4 times to mix thoroughly, and centrifuged at 4° C. and 2000 g for 5 minutes to separate the upper layer of plasma. The plasma was promptly transferred to −80° C. for storage and analysis. Blood collection was performed via the tail vein.
(§1) 5. Sample Analysis and Data Processing
A quantitative detection method for the target compounds was established using Shimadzu liquid chromatography and Triple Quad TM 6500+AB mass spectrometry. The concentration of the parent drug in plasma was analyzed. The analysis results were controlled for variability using quality control samples, and the accuracy of the quality control samples should be between 80% and 120%.
The non-compartmental model in the winnonlin Phoenix software was used to calculate the main pharmacokinetic parameters. These included the area under the pharmacokinetic curve (AUC(0-t) and AUC(0-∞)), elimination half-life (T1/2), maximum plasma concentration (Cmax), and time to reach maximum plasma concentration (Tmax).

The nature of data set [3]: Brain-penetrating pharmacokinetic study (plasma, brain tissue). It counts as in vivo, Sprague-Dawley (SD) rat. Conditions: SD rat, gavage (p.o.) 10 mg/kg single dose; for Kp: Sprague-Dawley, brain/plasma, po, read-out: Ratio of total drug in Brain tissue/plasma(B/P).
Excerpt: Test Example 2 Brain-Penetrating Pharmacokinetic Study
Solvent for Administration: 5% DMSO+10% Solutol HS15+85% physiological saline
Formulation preparation process: weighed an appropriate amount of powder, added an appropriate volume of DMSO, vortexed, then added an appropriate volume of Solutol solution, vortexed, and finally added an appropriate amount of physiological saline, vortexed and sonicated to obtain a homogeneous, clear formulation solution.
Two samples of the formulation were retained before administration, and the remaining formulation after administration was stored at 2-8° C. for shipment.
Laboratory animals were housed in the animal facility of Suzhou Xihua New Drug Development Co., Ltd. (license number: SYXK(Su)2021-0019). The animal facility was equipped with an air conditioning system and had good ventilation. The indoor temperature was maintained 20° C.-26° C., and the humidity was maintained 40%-70%4. Artificial lighting was used in the animal rooms, with 12 hours of light and 12 hours of darkness (except when work lighting was required for experimental operations and cleaning). The experimental animals were allowed to eat and drink water freely.
After purchase, the animals were fed normally for at least 3 days. […] Each rat was marked with a tail tag. Animals in the oral administration group were fasted overnight on the day before administration and resumed feeding 4 hours after administration, and free access to water.
• Route of administration: gavage (p.o.) • Concentration: 1 mg/ml • Dose: 10 mg/kg • Volume: 10 mL/kg • Frequency: Single dose
Before administration, checked the condition of the drug formulation and ensured its uniformity by swirling, stirring, or shaking. Calculated the theoretical dosage volume for each SD rat in each group using the following formula.
4. Sample Collection and Processing
Samples were collected from experimental rats at 0.5 h, 1 h, 2 h, 4 h, 6 h, 8 h, and 24 h after administration.
Plasma: At each time point, 0.15 mL of whole blood was collected via the jugular vein and placed in a tube containing anticoagulant (3 μL of 15% EDTA-K2 solution). The tubes were stored on wet ice and centrifuged within 1 hour (2,000 g, 2-8° C., for 10 minutes) to obtain plasma. The plasma was stored in pre-chilled centrifuge tubes, rapidly frozen in dry ice, and then stored at −60° C. or lower in an ultra-low temperature freezer until LC-MS/MS analysis.
Cerebrospinal fluid: the rats was euthanized using the carbon dioxide method. ~50 μL of cerebrospinal fluid was collected using a puncture method, 1 mL syringe was used with the needle bevel facing upward and the needle tip nearly horizontal to puncture the subarachnoid space, secured the needle and slowly withdrew the cerebrospinal fluid. The sample was stored in dry ice within 30 minutes after collection, then transferred it to a −90~−60° C. environment.
Brain tissue: A cardiac perfusion was performed first, followed by brain tissue extraction. Under deep terminal anesthesia, approximately 8 milliliters of physiological saline were used for cardiac perfusion to flush the remaining blood from the brain tissue out of the circulation. After extraction, the brain tissue was gently washed once with frozen physiological saline, blotted up the water, weighed, and then transferred to a storage environment at −90~−60° C. for cryopreservation.
as §1
A quantitative detection method for the target compounds was established using Shimadzu liquid chromatography and Triple Quad TM 6500+AB mass spectrometry. The concentration of the parent drug in the sample was analyzed. The analysis results were controlled for variability using quality control samples, and the accuracy of the quality control samples should be between 80% and 120%.
Winnonlin Phoenix 8.1.0.3530 was used to calculate pharmacokinetic parameters: Tmax, Cmax, AUC(0-t), AUC(0-∞), Tu2, MRT(0-∞), etc. […]

For the compound `C[C@H](c1ncccc1F)[C@@H]1NC(=O)C=C1OCc1ccc(F)cc1` [Compound T-75], in data set [1], the “activation effects on LTP (in words)” value is “excellent activation effects on LTP”.

As to `C[C@H](c1ccccn1)[C@@H]1NC(=O)C=C1O[C@H](C)c1ccc(F)cc1` [Compound T-79], the “activation effects on LTP (in words)” value in data set [1] was “excellent activation effects on LTP”.

For the compound `O=C1C=C(OCc2ccc(F)cc2)[C@H](Cc2ccccn2)N1` [Compound T-01], in data set [2], the AUC(0-t) (commonly the area under the concentration-time curve up to a stated or last time point) is 3.5 µg·h/mL; the concentration peaked (Cmax) at 1.02 µg/mL; the Tmax (in general, the time from dosing to the highest level) amounted to 79.8 min. In data set [3] (brain tissue), the “Total drug exposure (AUC) in brain tissue” value (“Total drug exposure (AUC)” below) is 1.198 µg·h/mL. The “Total drug exposure (AUC)” value in data set [3] (plasma) worked out at 1.929 µg·h/mL. In data set [3], the Kp stood at 0.621. Further, the “electrical signal conduction in brain slices (in words)” value in data set [1] (perfusion administration, hippocampal slices) is listed as “significantly enhanced electrical signal conduction in brain slices”. Further, the “activation of LTP compared with the control compound (in words)” value in data set [1] (versus Compound 50561) is “higher activation of LTP”.

Take `C[C@@H](OC1=CC(=O)N[C@H]1Cc1ccccc1)c1ccc(F)cc1` [Compound T-47]: in data set [2], the area under the curve AUC(0-t) was 6.73 µg·h/mL; the Cmax (as a rule, the peak of the concentration-time curve) was 1.89 µg/mL; the Tmax is 90 min; the “pharmacokinetic properties (in words)” value is listed as “excellent pharmacokinetic properties”. Also, the “Total drug exposure (AUC)” value in data set [3] (brain tissue) was found to be 11.452 µg·h/mL. In addition, the “Total drug exposure (AUC)” value in data set [3] (plasma) was 5.529 µg·h/mL. In addition, in data set [3], the Kp is 2.07. Moreover, the “activation effects on LTP (in words)” value in data set [1] was “excellent activation effects on LTP”.

With `O=C1C=C(OCc2ccc(F)cc2)[C@H](Cc2ncccc2F)N1` [Compound T-36], in data set [2], the AUC(0-t) is 2.47 µg·h/mL, the peak level (Cmax) was 1.42 µg/mL and the time of peak concentration (Tmax) amounted to 25.2 min. In addition, the “activation effects on LTP (in words)” value in data set [1] is recorded as “excellent activation effects on LTP”.

Regarding `C[C@@H](OC1=CC(=O)N[C@H]1Cc1ccccn1)c1ccc(F)cc1` [Compound T-51], in data set [2], the AUC(0-t) amounted to 5.7 µg·h/mL, the maximum concentration (Cmax) amounted to 2.97 µg/mL, the Tmax came to 15 min and the “pharmacokinetic properties (in words)” value is “excellent pharmacokinetic properties”. In addition, the “activation effects on LTP (in words)” value in data set [1] is “excellent activation effects on LTP”.

`C[C@@H](c1ccccc1)[C@@H]1NC(=O)C=C1OCc1ccc(F)cc1` [Compound T-95]: in data set [2], the AUC(0-t) worked out at 5.79 µg·h/mL, the maximum concentration (Cmax) was found to be 1.03 µg/mL, the Tmax was determined as 49.8 min and the “pharmacokinetic properties (in words)” value was “excellent pharmacokinetic properties”.

Regarding `[2H]C([2H])(OC1=CC(=O)N[C@H]1Cc1ccccc1)c1ccc(F)cc1` [Compound T-45], in data set [2], the AUC(0-t) is 3.41 µg·h/mL, the Cmax amounted to 1.88 µg/mL and the time of peak concentration (Tmax) was 30 min.

`O=C1C=C(OCc2ccc(F)cc2)[C@H](Cc2ccccc2)N1` [Compound 50561, reference compound]: in data set [2], the exposure AUC(0-t) was determined as 2.5 µg·h/mL, the peak level (Cmax) was 0.838 µg/mL and the Tmax came to 79.8 min.

Regarding `C[C@H](c1ncccc1F)[C@@H]1NC(=O)C=C1O[C@H](C)c1ccc(F)cc1` [Compound T-99], the “activation effects on LTP (in words)” value in data set [1] is recorded as “excellent activation effects on LTP”.

On to `C[C@@H](OC1=CC(=O)N[C@H]1Cc1ncccc1F)c1ccc(F)cc1` [Compound T-54], for which the “activation effects on LTP (in words)” value in data set [1] is given as “excellent activation effects on LTP”.

For the compound `C[C@@H](c1ccccn1)[C@@H]1NC(=O)C=C1OCc1ccc(F)cc1` [Compound T-74], the “activation effects on LTP (in words)” value in data set [1] is “excellent activation effects on LTP”.

With `C[C@@H](c1ncccc1F)[C@@H]1NC(=O)C=C1OCc1ccc(F)cc1` [Compound T-76], in data set [1], the “activation effects on LTP (in words)” value is given as “excellent activation effects on LTP”.

On to `C[C@H](c1ccccn1)[C@@H]1NC(=O)C=C1OCc1ccc(F)cc1` [Compound T-73], for which the “activation effects on LTP (in words)” value in data set [1] is “excellent activation effects on LTP”.

In the case of `C[C@@H](OC1=CC(=O)N[C@H]1[C@@H](C)c1ncccc1F)c1ccc(F)cc1` [Compound T-100], the “activation effects on LTP (in words)” value in data set [1] is “excellent activation effects on LTP”.

In the case of `C[C@@H](OC1=CC(=O)N[C@H]1[C@@H](C)c1ccccn1)c1ccc(F)cc1` [Compound T-80], in data set [1], the “activation effects on LTP (in words)” value is “excellent activation effects on LTP”.
